According to PMC8854719, “Phase 1A/1B dose-escalation and -expansion study to evaluate the safety, pharmacokinetics, food effects and antitumor activity of pamiparib in advanced solid tumours” (British Journal of Cancer, 2021):
Where two headings read alike, the source gives them in different places.

Key:
[1] = Plasma pharmacokinetics of pamiparib (LC-MS/MS, non-compartmental); set-up: species or system human; details: in vivo; for AUC(0-inf): AUC0-inf; for Vd/F: Vz/F
Protocol: Patients in the dose-escalation phase received a single oral dose of pamiparib on day 1 of cycle 1 to collect samples for single-dose PK assessment over 48 h, followed by continuous daily doses (BID and QD) starting on day 3 of cycle 1 as a 21-day period of repeated drug administration (days 3–23), and then continued every 21-day cycle thereafter until disease progression, toxicity, or patient withdrawal. Eight BID dose levels (2.5, 5, 10, 20, 40, 60, 80, 120 mg) were administered (Fig. 1). After completion of BID dose-escalation, alternative dosing regimens of 120 and 160 mg QD were selected for exploration based on the total daily dose equivalent to the RP2D (60 mg BID) and MTD (80 mg BID), respectively. The QD dosing regimen was added as an amendment to the protocol with the purpose of exploring the feasibility of a more convenient regimen. During the dose-expansion phase, patients received pamiparib 60 mg BID (RP2D from BID dose-escalation phase) continuously from day 1 of cycle 1.
Pamiparib in plasma was measured using a validated liquid chromatography-tandem–mass spectrometry assay with a lower limit of quantification of 1.0 ng/mL. The collection schedule for blood samples used to assess the PK profile is presented in the Supplemental Appendix. Summary PK parameters, including area under the concentration-time curve from time 0 to 9 h (AUC0-9) or infinity (AUC0-inf), maximal plasma concentration (Cmax) and time to maximal plasma concentration (Tmax), were estimated. The pharmacodynamic (PD) activity of pamiparib was explored through the evaluation of poly(ADP-ribose [PAR]) formation in peripheral blood mononuclear cells (PBMCs) after pamiparib administration. The schedule for blood sample collection (PK and PBMCs) and additional assessment information for PAR levels in PBMCs and pharmacodynamic activity is presented in the Supplemental Appendix. Antitumor activity was assessed by radiographic imaging (computed tomography or magnetic resonance imaging) during screening, within 28 days of first pamiparib dose, every 6 weeks in the first 12 months and every 9 weeks thereafter.
Descriptive statistics were used to summarise all study data (see Supplemental Appendix). Progression-free survival (PFS) and event-free rates were estimated using the Kaplan–Meier method along with the corresponding 95% CI. Pharmacokinetic parameters were derived using standard non-compartmental methods with Phoenix WinNonlin Version 6.4 or higher (Pharsight Corp., Mountain View, California).
The PK profile of pamiparib was assessed based on blood samples collected at predose and 0.5, 1, 2, 4, 6, 9, 24, and 48 hours postdose on Days 1-3 and then at predose and 0.5, 1, 2, 4, 6, and 9 hours postdose on Day 17 of Cycle 1 in Phase 1A. Sparse PK samples were collected in phase 1B Part A. The food effect on the PK of pamiparib was assessed based on blood samples collected at predose and 0.5, 1, 2, 4, 7, 24, and 48 hours postdose on Day 1 and Day 6 of Cycle 1 in phase 1B Part B.

P-glycoprotein = tested on: P-glycoprotein; set-up: method as in PMID 32652442; details: cited from earlier work
[2] = tested on: BCRP (breast cancer resistance protein); set-up: method as in PMID 32652442; details: cited from earlier work
[3] = human, 2.5 mg, Single Dose (Cycle 1 Day 1)
[4] = human, 5 mg, Single Dose (Cycle 1 Day 1)
[5] = human, 10 mg, Single Dose (Cycle 1 Day 1)
[6] = human, 20 mg, Single Dose (Cycle 1 Day 1)
[7] = human, 40 mg, Single Dose (Cycle 1 Day 1)
[8] = human, 60 mg, Single Dose (Cycle 1 Day 1)
[9] = human, 80 mg, Single Dose (Cycle 1 Day 1)
[10] = human, 120 mg, Single Dose (Cycle 1 Day 1)
[11] = human, 160 mg, Single Dose (Cycle 1 Day 1)

## C[C@]12CCCN1CC1=NNC(=O)c3cc(F)cc4[nH]c2c1c34 [pamiparib]
[1]; human
  Dose proportionality, AUC0-inf (h*ng/mL): Intercept (95% CI): 5.97 (5.36-6.57)
  Dose proportionality, AUC0-inf (h*ng/mL): Slope (95% CI): 1.04 (0.88-1.20)
  Dose proportionality, Cmax (ng/mL): Intercept (95% CI): 3.66 (3.34-3.99)
  Dose proportionality, Cmax (ng/mL): Slope (95% CI): 0.96 (0.87-1.04)
[1]; human, 2.5 mg
  Accumulation Ratio, AUC0-9: 2.42
  Accumulation Ratio, Cmax: 2.44
  CL/F, Single Dose (Cycle 1 Day 1): 4265.3 (34.8) mL/hr
  t1/2, Single Dose (Cycle 1 Day 1): 12.03 (7.08, 33.87) hr
[1]; human, 2.5 mg, AUC0-9, Single Dose (Cycle 1 Day 1)
  AUC(0-t): 385 ng·h/mL
[1]; human, 2.5 mg, AUC0-9, Steady State (Cycle 1 Day 17)
  AUC(0-t): 931 ng·h/mL
[1]; [3]
  AUC(0-inf): 586 ng·h/mL
  Cmax: 74.5 ng/mL
  Vd/F: 52.4 L
[1]; human, 2.5 mg, Steady State (Cycle 1 Day 17)
  Cmax: 182 ng/mL
[1]; human, 5 mg
  Accumulation Ratio, AUC0-9: 1.93
  Accumulation Ratio, Cmax: 2.09
  CL/F, Single Dose (Cycle 1 Day 1): 2056.9 (49.5) mL/hr
[1]; human, 5 mg, AUC0-9, Single Dose (Cycle 1 Day 1)
  AUC(0-t): 1100 ng·h/mL
[1]; human, 5 mg, AUC0-9, Steady State (Cycle 1 Day 17)
  AUC(0-t): 2120 ng·h/mL
[1]; [4]
  AUC(0-inf): 2430 ng·h/mL
  Cmax: 193 ng/mL
  Vd/F: 32.7 L
[1]; human, 5 mg, Steady State (Cycle 1 Day 17)
  Cmax: 404 ng/mL
[1]; human, 5 mg, Tmax, Steady State (Cycle 1 Day 17)
  Tmax: 0.53 h
[1]; human, 5 mg, t1/2, Single Dose (Cycle 1 Day 1)
  half-life: 11 h
[1]; human, 10 mg
  Accumulation Ratio, AUC0-9: 1.68
  Accumulation Ratio, Cmax: 1.59
  CL/F, Single Dose (Cycle 1 Day 1): 1359.2 (35.9) mL/hr
[1]; human, 10 mg, AUC0-9, Single Dose (Cycle 1 Day 1)
  AUC(0-t): 2580 ng·h/mL
[1]; human, 10 mg, AUC0-9, Steady State (Cycle 1 Day 17)
  AUC(0-t): 4330 ng·h/mL
[1]; [5]
  AUC(0-inf): 7360 ng·h/mL
  Cmax: 412 ng/mL
  Vd/F: 27.6 L
[1]; human, 10 mg, Steady State (Cycle 1 Day 17)
  Cmax: 657 ng/mL
[1]; human, 10 mg, Tmax, Steady State (Cycle 1 Day 17)
  Tmax: 1.05 h
[1]; human, 10 mg, t1/2, Single Dose (Cycle 1 Day 1)
  half-life: 14.1 h
[1]; human, 20 mg
  AUC0-9, Single Dose (Cycle 1 Day 1): 4134.9 (29.9) ng/ml*hr
  Accumulation Ratio, AUC0-9: 1.82
  Accumulation Ratio, Cmax: 1.62
  CL/F, Single Dose (Cycle 1 Day 1): 2550.4 (58.7) mL/hr
  Cmax, Steady State (Cycle 1 Day 17): 1267.6 (19.9) ng/ml
[1]; human, 20 mg, AUC0-9, Steady State (Cycle 1 Day 17)
  AUC(0-t): 7510 ng·h/mL
[1]; [6]
  AUC(0-inf): 7840 ng·h/mL
  Cmax: 783 ng/mL
  Vd/F: 31.4 L
[1]; human, 20 mg, Tmax, Single Dose (Cycle 1 Day 1)
  Tmax: 0.53 h
[1]; human, 20 mg, t1/2, Single Dose (Cycle 1 Day 1)
  half-life: 8.53 h
[1]; human, 40 mg
  Accumulation Ratio, AUC0-9: 1.86
  Accumulation Ratio, Cmax: 1.60
  CL/F, Single Dose (Cycle 1 Day 1): 1826.6 (85.8) mL/hr
  t1/2, Single Dose (Cycle 1 Day 1): 11.76 (6.24, 24.37) hr
[1]; human, 40 mg, AUC0-9, Single Dose (Cycle 1 Day 1)
  AUC(0-t): 8950 ng·h/mL
[1]; human, 40 mg, AUC0-9, Steady State (Cycle 1 Day 17)
  AUC(0-t): 18300 ng·h/mL
[1]; [7]
  AUC(0-inf): 21900 ng·h/mL
  Cmax: 1750 ng/mL
  Vd/F: 31 L
[1]; human, 40 mg, Steady State (Cycle 1 Day 17)
  Cmax: 2940 ng/mL
[1]; human, 40 mg, Tmax, Steady State (Cycle 1 Day 17)
  Tmax: 1.5 h
[1]; human, 60 mg
  AUC0-9, Single Dose (Cycle 1 Day 1): 10403.7 (29.2) ng/ml*hr
  CL/F, Single Dose (Cycle 1 Day 1): 1874.7 (55.4) mL/hr
  Geometric mean half-life: 13.5 h
  t1/2, Single Dose (Cycle 1 Day 1): 13.50 (7.14, 24.61) hr
[1]; human, 60 mg, AUC0-9, Steady State (Cycle 1 Day 17)
  AUC(0-t): 25200 ng·h/mL
[1]; [8]
  AUC(0-inf): 32000 ng·h/mL
  Cmax: 1880 ng/mL
  Vd/F: 36.5 L
[1]; human, 60 mg, Steady State (Cycle 1 Day 17)
  Cmax: 3830 ng/mL
[1]; human, 80 mg
  Accumulation Ratio, AUC0-9: 2.07
  Accumulation Ratio, Cmax: 1.96
  CL/F, Single Dose (Cycle 1 Day 1): 2786.6 (56.0) mL/hr
  Cmax, Single Dose (Cycle 1 Day 1): 2317.8 (43.0) ng/ml
[1]; human, 80 mg, AUC0-9, Single Dose (Cycle 1 Day 1)
  AUC(0-t): 13200 ng·h/mL
[1]; human, 80 mg, AUC0-9, Steady State (Cycle 1 Day 17)
  AUC(0-t): 25300 ng·h/mL
[1]; [9]
  AUC(0-inf): 28700 ng·h/mL
  Vd/F: 38.5 L
[1]; human, 80 mg, Steady State (Cycle 1 Day 17)
  Cmax: 4350 ng/mL
[1]; human, 80 mg, Tmax, Single Dose (Cycle 1 Day 1)
  Tmax: 1.98 h
[1]; human, 80 mg, Tmax, Steady State (Cycle 1 Day 17)
  Tmax: 1.08 h
[1]; human, 80 mg, t1/2, Single Dose (Cycle 1 Day 1)
  half-life: 9.58 h
[1]; human, 120 mg
  AUC0-9, Steady State (Cycle 1 Day 17): 36558.4 (32.4) ng/ml*hr
  AUC0-inf, Single Dose (Cycle 1 Day 1): 68952.9 (43.3) ng/ml*hr
  Cmax, Single Dose (Cycle 1 Day 1): 3752.8 (41.1) ng/ml
  Cmax, Steady State (Cycle 1 Day 17): 6059.1 (27.7) ng/ml
  Vz/F, Single Dose (Cycle 1 Day 1): 31373.9 (13.9) mL
  t1/2, Single Dose (Cycle 1 Day 1): 14.29 (9.83, 30.30) hr
[1]; human, 120 mg, AUC0-9, Single Dose (Cycle 1 Day 1)
  AUC(0-t): 21100 ng·h/mL
[1]; human, 120 mg, AUC0-9, Steady State (Cycle 1 Day 17)
  AUC(0-t): 26900 ng·h/mL
[1]; [10]
  AUC(0-inf): 52000 ng·h/mL
  Cmax: 3590 ng/mL
  Vd/F: 36.3 L
[1]; human, 120 mg, Steady State (Cycle 1 Day 17)
  Cmax: 4530 ng/mL
[1]; human, 120 mg, Tmax, Single Dose (Cycle 1 Day 1)
  Tmax: 1.95 h
[1]; human, 120 mg, t1/2, Single Dose (Cycle 1 Day 1)
  half-life: 10.9 h
[1]; human, 160 mg
  Accumulation Ratio, AUC0-9: 1.47
  Accumulation Ratio, Cmax: 1.27
  CL/F, Single Dose (Cycle 1 Day 1): 1569.1 (44.8) mL/hr
[1]; human, 160 mg, AUC0-9, Single Dose (Cycle 1 Day 1)
  AUC(0-t): 31800 ng·h/mL
[1]; human, 160 mg, AUC0-9, Steady State (Cycle 1 Day 17)
  AUC(0-t): 45300 ng·h/mL
[1]; [11]
  AUC(0-inf): 102000 ng·h/mL
  Cmax: 5340 ng/mL
  Vd/F: 34.5 L
[1]; human, 160 mg, Steady State (Cycle 1 Day 17)
  Cmax: 6870 ng/mL
[1]; human, 160 mg, t1/2, Single Dose (Cycle 1 Day 1)
  half-life: 15.2 h
[1]; human, Mean terminal half-life
  half-life: ~13 h
[1]; human, Median Tmax
  Tmax: 1 to 2 h
[1]; human, BID 2.5 mg, N 4, read-out: Tmax, Steady State (Cycle 1 Day 17)
  Tmax: 0.54 h
[1]; human, QD 120 mg, N 8, read-out: AUC0-9, Single Dose (Cycle 1 Day 1)
  AUC0-9: 21700 ng·h/mL
[1]
  Exposure (Cmax and AUC0-inf) versus dose: dose-proportional increase
P-glycoprotein
  Substrate of P-glycoprotein: not a substrate
[2]
  Substrate of BCRP: not a substrate
